# Where two headings read alike, the source gives them in different places.
# Legend:
# [1] = target: Recombinant Cat D (Homo sapiens (Human), UniProt P07339); test: In vitro enzymatic Cathepsin D (Cat D) FRET assay; type: biochemical; details: read-out: IC50 IP (μM) CatD
# Procedure, shortened: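 Fluorescence at 500 nm excitation and 580 nm emission reports cleavage of a quenched fluorophore–quencher peptide (20 nM) by CHO-expressed Cat D. Reactions ran one hour in 0.05 M citrate pH 3.5, 5 mM CHAPS, 10% DMSO final before a Tris stop raised pH to neutrality.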
# [2] = target: human recombinant BACE1 (Homo sapiens (Human), UniProt P56817); test: In vitro enzymatic BACE1 FRET assay; type: biochemical; details: read-out: IC50 IP (μM) BACE1 enzyme
# Procedure, shortened: (§1)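 Read-out: dequenched fluorescence, excitation 488 nm, emission 590 nm, after proteolysis of a quenched peptide spanning the BACE cleavage site. Substrate at 50 nM, 1 h incubation, termination by Tris addition to neutral pH.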
# [3] = target: human recombinant BACE2 (Homo sapiens (Human), UniProt Q9Y5Z0); test: In vitro enzymatic BACE2 FRET assay; type: biochemical; details: read-out: IC50 IP (μM) BACE2 enzyme
# Procedure, shortened: as §1
# [4] = test system: Aβ40 in conditioned medium of cells stably expressing Amyloid Precursor Protein (APP); test: In vitro BACE-1 cell-based assay (Aβ40 sandwich ELISA); details: read-out: IC50 IP (μM) BACE1 cell
# Procedure, shortened: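 Read-out: time-resolved fluorescence (Streptavidin-Europium) of Aβ40 captured by pAb40 and detected with biotinylated 6E10 from supernatants of APP-stable cells. Cells were exposed to compound for 24 h, 10-point dose response, top dose 100 μM or 10 μM, 0.1% DMSO. IC50 fitted to percent of control.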
# human recombinant BACE2, sequence (Q9Y5Z0 63-518): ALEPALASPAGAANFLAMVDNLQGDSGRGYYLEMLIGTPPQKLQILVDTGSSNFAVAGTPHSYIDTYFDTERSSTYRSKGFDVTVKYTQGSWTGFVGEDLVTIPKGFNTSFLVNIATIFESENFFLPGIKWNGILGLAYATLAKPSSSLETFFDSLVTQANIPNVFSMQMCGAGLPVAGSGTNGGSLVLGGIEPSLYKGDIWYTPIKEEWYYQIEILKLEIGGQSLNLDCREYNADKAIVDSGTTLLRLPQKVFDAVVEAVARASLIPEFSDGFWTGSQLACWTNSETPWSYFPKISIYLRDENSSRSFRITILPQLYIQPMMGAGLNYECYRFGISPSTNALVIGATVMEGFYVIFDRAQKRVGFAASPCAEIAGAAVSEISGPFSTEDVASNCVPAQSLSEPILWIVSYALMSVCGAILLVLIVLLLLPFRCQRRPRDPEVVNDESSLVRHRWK
# Recombinant Cat D, sequence (P07339 65-412): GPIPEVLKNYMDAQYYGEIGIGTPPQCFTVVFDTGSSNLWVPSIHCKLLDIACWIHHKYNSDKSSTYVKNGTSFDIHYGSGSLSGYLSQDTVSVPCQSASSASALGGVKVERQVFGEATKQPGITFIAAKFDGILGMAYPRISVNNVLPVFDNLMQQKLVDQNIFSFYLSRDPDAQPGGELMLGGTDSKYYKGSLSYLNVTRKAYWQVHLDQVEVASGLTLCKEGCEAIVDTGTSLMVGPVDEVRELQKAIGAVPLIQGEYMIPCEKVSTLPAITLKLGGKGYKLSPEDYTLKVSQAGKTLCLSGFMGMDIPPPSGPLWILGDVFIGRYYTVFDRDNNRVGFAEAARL
# human recombinant BACE1, sequence (P56817 46-501): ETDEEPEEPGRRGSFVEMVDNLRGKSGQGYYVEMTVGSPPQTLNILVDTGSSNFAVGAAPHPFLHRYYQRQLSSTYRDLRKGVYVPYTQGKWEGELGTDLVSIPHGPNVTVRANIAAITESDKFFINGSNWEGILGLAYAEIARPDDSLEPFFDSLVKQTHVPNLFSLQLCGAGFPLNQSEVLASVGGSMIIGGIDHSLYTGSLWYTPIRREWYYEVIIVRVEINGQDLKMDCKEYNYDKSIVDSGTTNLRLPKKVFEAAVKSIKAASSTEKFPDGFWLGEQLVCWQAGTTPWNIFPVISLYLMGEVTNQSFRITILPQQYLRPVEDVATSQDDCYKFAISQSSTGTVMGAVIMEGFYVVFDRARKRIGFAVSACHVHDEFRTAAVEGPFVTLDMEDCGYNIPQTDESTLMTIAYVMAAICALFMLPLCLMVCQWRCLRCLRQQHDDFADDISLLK
IC50 [1] [µM],IC50 [2] [µM],IC50 [3] [µM],IC50 [4] [µM],IC50 ([1]; Cathepsin D FRET enzyme assay) [µM],IC50 ([2]; BACE1 FRET enzyme assay) [µM],IC50 ([3]; BACE2 FRET enzyme assay) [µM],IC50 ([4]; BACE1 cell-based assay) [µM],SMILES
> 400,0.129,1.1,0.12,–,–,–,–,"COC[C@]12C[C@H]1[C@@](C)(c1cc(NC(=O)c3cnc(OC(C)C(F)(F)F)cn3)ccc1F)N=C(N)S2 (mixture of isomers) [Example 968, N-(3-((1S,5S,6S)-3-amino-1-(methoxymethyl)-5-methyl-2-thia-4-azabicyclo[4.1.0]hept-3-en-5-yl)-4-fluorophenyl)-5-((1,1,1-trifluoropropan-2-yl)oxy)pyrazine-2-carboxamide]"
278,0.00032,0.00931,0.000849,–,–,–,–,"C#CCOc1cnc(C(=O)Nc2cnc(F)c([C@@]3(C)N=C(N)S[C@@]4(CF)C[C@H]43)c2)cn1 [Example 606, N-(5-((1S,5S,6S)-3-amino-1-(fluoromethyl)-5-methyl-2-thia-4-azabicyclo[4.1.0]hept-3-en-5-yl)-6-fluoropyridin-3-yl)-5-(prop-2-yn-1-yloxy)pyrazine-2-carboxamide]"
–,–,–,–,494,0.137,3.75,4.65,"CC(C)Oc1cnc2c(Nc3cc(F)c(F)c([C@@]4(CF)N=C(N)S[C@H]5C[C@H]54)c3)nccc2n1 [Example 63, N-(3-((1S,5S,6S)-3-amino-5-(fluoromethyl)-2-thia-4-azabicyclo[4.1.0]hept-3-en-5-yl)-4,5-difluorophenyl)-2-(1-methylethoxy)pyrido[3,4-b]pyrazin-5-amine]"
1970,0.0033,0.233,0.00697,–,–,–,–,"C[C@]1(c2cc(Nc3ncnc4cc(OCc5ncco5)cnc34)cnc2F)N=C(N)S[C@@]2([C@@H](O)C(F)(F)F)C[C@H]21 [Example 668, (1S)-1-((1S,5S,6S)-3-amino-5-(2-fluoro-5-((7-(1,3-oxazol-2-ylmethoxy)pyrido[3,2-d]pyrimidin-4-yl)amino)-3-pyridinyl)-5-methyl-2-thia-4-azabicyclo[4.1.0]hept-3-en-1-yl)-2,2,2-trifluoroethanol]"
1580,0.000256,0.0636,0.00294,–,–,–,–,"COC[C@]12C[C@H]1[C@@](C)(c1cc(NC(=O)c3cnc(OCC(F)(F)F)cn3)cc(C)c1F)N=C(N)S2 [Example 1065, N-(3-((1S,5S,6S)-3-amino-1-(methoxymethyl)-5-methyl-2-thia-4-azabicyclo[4.1.0]hept-3-en-5-yl)-4-fluoro-5-methylphenyl)-5-(2,2,2-trifluoroethoxy)-2-pyrazinecarboxamide]"
–,–,–,–,> 400,0.00255,0.00147,0.00215,"Cc1cc(C#N)cnc1C(=O)Nc1ccc(F)c([C@@]2(CF)N=C(N)S[C@@]3(CO)C[C@H]32)c1 [Example 44, N-(3-((1S,5S,6S)-3-amino-5-(fluoromethyl)-1-(hydroxymethyl)-2-thia-4-azabicyclo[4.1.0]hept-3-en-5-yl)-4-fluorophenyl)-5-cyano-3-methyl-2-pyridinecarboxamide]"
306,0.00369,0.00303,0.00533,–,–,–,–,"C[C@]1(c2cc(Nc3nccc4cc(C#N)cnc34)cnc2F)N=C(N)S[C@@]2(C(F)F)C[C@@H]12 [Example 657, 8-((5-((1S,5S,6S)-3-amino-1-(difluoromethyl)-5-methyl-2-thia-4-azabicyclo[4.1.0]hept-3-en-5-yl)-6-fluoro-3-pyridinyl)amino)-1,7-naphthyridine-3-carbonitrile]"
779,0.000415,< 0.00203,0.00265,–,–,–,–,"CNC(=O)/C=C/[C@]12C[C@H]1[C@@](CF)(c1cc(NC(=O)c3ccc(Cl)cn3)ccc1F)N=C(N)S2 [Example 760, N-(3-((1R,5S,6S)-3-amino-5-(fluoromethyl)-1-((E)-3-(methylamino)-3-oxoprop-1-en-1-yl)-2-thia-4-azabicyclo[4.1.0]hept-3-en-5-yl)-4-fluorophenyl)-5-chloropicolinamide]"
2050,0.0264,1.63,0.0238,–,–,–,–,"COC[C@]12C[C@H]1[C@@](C)(c1cc(NC(=O)c3cnc(OC4COC4)cn3)ccc1F)N=C(N)S2 [Example 1067, N-(3-((1S,5S,6S)-3-amino-1-(methoxymethyl)-5-methyl-2-thia-4-azabicyclo[4.1.0]hept-3-en-5-yl)-4-fluorophenyl)-5-(oxetan-3-yloxy)pyrazine-2-carboxamide]"
267,0.000194,0.0631,0.0026,–,–,–,–,"CNC(=O)[C@]12C[C@H]1[C@@](C)(c1cc(NC(=O)c3cnc(OCC(F)(F)C(F)F)cn3)cc(F)c1F)N=C(N)S2 [Example 963, (1S,5S,6S)-3-amino-5-(2,3-difluoro-5-(((5-(2,2,3,3-tetrafluoropropoxy)-2-pyrazinyl)carbonyl)amino)phenyl)-N,5-dimethyl-2-thia-4-azabicyclo[4.1.0]hept-3-ene-1-carboxamide]"
306,0.0016,0.00948,0.00305,–,–,–,–,"C#CCOc1cnc2c(Nc3cnc(F)c([C@@]4(C)N=C(N)S[C@@]5([C@@H](OC)C(F)(F)F)C[C@H]54)c3)nccc2n1 [Example 677, N-(5-((1S,5S,6S)-3-amino-5-methyl-1-((1S)-2,2,2-trifluoro-1-methoxyethyl)-2-thia-4-azabicyclo[4.1.0]hept-3-en-5-yl)-6-fluoro-3-pyridinyl)-2-(2-propyn-1-yloxy)pyrido[3,4-b]pyrazin-5-amine]"
1380,0.0157,1.03,0.0759,–,–,–,–,"COC[C@]12C[C@H]1[C@@](C)(c1cc(Nc3nccc4cc(OCc5ncon5)cnc34)cc(F)c1F)N=C(N)S2 [Example 730, N-(3-((1S,5S,6S)-3-amino-1-(methoxymethyl)-5-methyl-2-thia-4-azabicyclo[4.1.0]hept-3-en-5-yl)-4,5-difluorophenyl)-3-(1,2,4-oxadiazol-3-ylmethoxy)-1,7-naphthyridin-8-amine]"
340,0.00594,0.011,0.0153,–,–,–,–,"C[C@]1(c2cc(Nc3ncnc4cc(C#N)cnc34)ccc2F)N=C(N)S[C@]2(CO)[C@H]1C2(F)F [Example 703, 4-((3-((1S,5S,6R)-3-amino-7,7-difluoro-1-(hydroxymethyl)-5-methyl-2-thia-4-azabicyclo[4.1.0]hept-3-en-5-yl)-4-fluorophenyl)amino)pyrido[3,2-d]pyrimidine-7-carbonitrile]"
547,0.000864,0.00394,0.00543,–,–,–,–,"C#CCOc1cnc2c(Nc3ccc(F)c([C@@]4(C)N=C(N)S[C@]5([C@@H](C)O)[C@H]4C5(F)F)c3)nccc2n1 [Example 713, (1R)-1-((1S,5S,6R)-3-amino-7,7-difluoro-5-(2-fluoro-5-((2-(2-propyn-1-yloxy)pyrido[3,4-b]pyrazin-5-yl)amino)phenyl)-5-methyl-2-thia-4-azabicyclo[4.1.0]hept-3-en-1-yl)ethanol]"
884,0.00214,0.313,0.0222,–,–,–,–,"COC[C@H](C)Oc1cnc(C(=O)Nc2cc(F)c(F)c([C@@]3(C)N=C(N)S[C@@]4(COC)C[C@H]43)c2)cn1 [Example 1024, N-(3-((1S,5S,6S)-3-amino-1-(methoxymethyl)-5-methyl-2-thia-4-azabicyclo[4.1.0]hept-3-en-5-yl)-4,5-difluorophenyl)-5-((1S)-2-methoxy-1-methylethoxy)-2-pyrazinecarboxamide]"
48,0.000805,0.0501,0.00178,–,–,–,–,"C#CCOc1cnc(C(=O)Nc2ccc(F)c([C@@]3(CF)N=C(N)S[C@@]4(COC(C)C)C[C@H]43)c2)cn1 [Example 955, N-(3-((1S,5S,6S)-3-amino-5-(fluoromethyl)-1-((1-methylethoxy)methyl)-2-thia-4-azabicyclo[4.1.0]hept-3-en-5-yl)-4-fluorophenyl)-5-(2-propyn-1-yloxy)-2-pyrazinecarboxamide]"
> 400,0.00471,0.195,0.0022,–,–,–,–,"COC[C@]12C[C@H]1[C@@](C)(c1cc(NC(=O)c3cnc(OCc4nc(C)no4)cn3)ccc1F)N=C(N)S2 [Example 1008, N-(3-((1S,5S,6S)-3-amino-1-(methoxymethyl)-5-methyl-2-thia-4-azabicyclo[4.1.0]hept-3-en-5-yl)-4-fluorophenyl)-5-((3-methyl-1,2,4-oxadiazol-5-yl)methoxy)-2-pyrazinecarboxamide]"
641,0.00575,0.0485,0.0671,–,–,–,–,"Cc1nc(OCC(F)(F)F)cnc1C(=O)Nc1ccc(F)c([C@@]2(C)N=C(N)S[C@@]3(C(F)F)C[C@@H]23)c1 [Example 623, N-(3-((1S,5S,6S)-3-amino-1-(difluoromethyl)-5-methyl-2-thia-4-azabicyclo[4.1.0]hept-3-en-5-yl)-4-fluorophenyl)-3-methyl-5-(2,2,2-trifluoroethoxy)-2-pyrazinecarboxamide]"
